Measured values: patent US20120214822A1 (ASTRAZENECA AB, priority 2007, published 2012)
Counter-ions that a name gives are not always drawn.

Target: human active recombinant p38α-6His tagged (Homo sapiens, UniProt Q16539)
Assay: P38 Alpha Enzyme Assay (AlphaScreen, biotinylated-ATF2 substrate);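 further: 0.5 nM final p38α, reaction started with ATP and run 45 min at 37 °C, phospho-ATF2 read by antibody-based AlphaScreen, background wells quenched with EDTA before ATP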
Type: biochemical
Details: p38 alpha enzyme inhibition; means of replicate determinations; 4 h pre-incubation at 37° C.; SD of assay 0.2-0.3 log units

Sequence of human active recombinant p38α-6His tagged (Q16539 whole entry): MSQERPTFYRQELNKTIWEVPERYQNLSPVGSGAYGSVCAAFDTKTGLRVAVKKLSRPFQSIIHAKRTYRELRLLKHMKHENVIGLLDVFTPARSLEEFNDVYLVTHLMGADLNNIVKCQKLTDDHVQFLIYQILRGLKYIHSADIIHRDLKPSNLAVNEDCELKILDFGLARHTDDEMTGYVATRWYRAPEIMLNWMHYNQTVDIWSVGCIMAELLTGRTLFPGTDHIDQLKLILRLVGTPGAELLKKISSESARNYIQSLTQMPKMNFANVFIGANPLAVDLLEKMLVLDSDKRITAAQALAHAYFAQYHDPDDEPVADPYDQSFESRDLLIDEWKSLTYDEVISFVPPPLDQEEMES

| pIC50 | IC50 | Molecule |
| --- | --- | --- |
| 6.8 | – | Cc1ccc(C(=O)NC2CC2)cc1-n1ccnc(NCCc2ccc(OCCN3CCCC3)cc2)c1=O [Example 133, N-Cyclopropyl-4-methyl-3-[2-oxo-3-[[2-[4-[2-(1-pyrrolidinyl)ethoxy]phenyl]ethyl]amino]-1(2H)-pyrazinyl]-benzamide] |
| 6.8 | – | Cc1ccc(C(=O)NC2CC2)cc1-n1ccnc(NCCc2ccc(O)cc2)c1=O [Example 70, N-Cyclopropyl-3-[3-[[2-(4-hydroxyphenyl)ethyl]amino]-2-oxo-1(2H)-pyrazinyl]-4-methyl-benzamide] |
| 9.5 | – | Cc1ccc(C(=O)NC2CC2)cc1-n1ccnc(NC2(c3ccccc3OCCNC3CCS(=O)(=O)C3)CC2)c1=O (stereo not drawn) [Example 295, N-Cyclopropyl-3-[3-{[1-(2-{2-[(1,1-dioxidotetrahydrothiophen-3-yl)amino]ethoxy}phenyl)cyclopropyl]amino}-2-oxopyrazin-1(2H)-yl]-4-methylbenzamide] |
| 10.4 | – | CCNC[C@@H](O)COc1ccccc1C(C)(C)Nc1nccn(-c2cc(C(=O)NC3CC3)cc(F)c2C)c1=O [Example 308, N-Cyclopropyl-3-[3-{[1-(2-{[(2R)-3-(ethylamino)-2-hydroxypropyl]oxy}phenyl)-1-methylethyl]amino}-2-oxopyrazin-1(2H)-yl]-5-fluoro-4-methylbenzamide] |
| 8 | – | CNCCOc1ccccc1C1CCCN1c1nccn(-c2cc(C(=O)NC3CC3)ccc2C)c1=O (stereo not drawn) [Example 327, N-Cyclopropyl-4-methyl-3-[3-(2-{2-[2-(methylamino)ethoxy]phenyl}pyrrolidin-1-yl)-2-oxopyrazin-1(2H)-yl]benzamide Trifluoroacetate salt] |
| 6.9 | – | Cc1ccc(C(=O)NC2CC2)cc1-n1ccnc(NCc2cccc(C(F)(F)F)c2)c1=O [Example 93, N-Cyclopropyl-4-methyl-3-[2-oxo-3-[[[3-(trifluoromethyl)phenyl]methyl]amino]-1(2H)-pyrazinyl]-benzamide] |
| 9.1 | – | Cc1ccc(C(=O)NC2CC2)cc1-n1ccnc(NC(C)(C)c2ccccc2OCCCN2CCN(C)CC2)c1=O [Example 208, N-Cyclopropyl-4-methyl-3-[3-[[1-methyl-1-[2-[3-(4-methyl-1-piperazinyl)propoxy]phenyl]ethyl]amino]-2-oxo-1(2H)-pyrazinyl]-benzamide] |
| 8.8 | – | Cc1ccc(C(=O)NC2CC2)cc1-n1ccnc(N[C@@H](c2ccccc2)[C@@H](C)CNC2CCNCC2)c1=O [Example 195, N-Cyclopropyl-4-methyl-3-[3-[[(1R,2S)-2-methyl-1-phenyl-3-(4-piperidinylamino)propyl]amino]-2-oxo-1(2H)-pyrazinyl]-benzamide] |
| 6.1 | – | Cc1ccc(C(=O)NC2CC2)cc1-n1cc(Cl)nc(N2CCN(C)CC2)c1=O [Example 107, 3-[5-Chloro-3-(4-methyl-1-piperazinyl)-2-oxo-1(2H)-pyrazinyl]-N-cyclopropyl-4-methyl-benzamide] |
| 9.7 | – | CNCCOc1ccccc1C1(Nc2nccn(-c3cc(C(=O)NC4CC4)ccc3C)c2=O)CC1 [Example 167, N-Cyclopropyl-4-methyl-3-[3-[[1-[2-[2-(methylamino)ethoxy]phenyl]cyclopropyl]amino]-2-oxo-1(2H)-pyrazinyl]-benzamide] |
| 7.1 | – | CONC(=O)c1ccc(C)c(-n2ccnc(NCc3ccccc3CN3CCN(C)CC3)c2=O)c1 [Example 111, N-Methoxy-4-methyl-3-[3-[[[2-[(4-methyl-1-piperazinyl)methyl]phenyl]methyl]amino]-2-oxo-1(2H)-pyrazinyl]-benzamide] |
| 9.5 | – | CNCCCc1ccccc1C(C)(C)Nc1nccn(-c2cc(C(=O)NC3CC3)cc(F)c2C)c1=O [Example 323, N-Cyclopropyl-3-fluoro-4-methyl-5-{3-[(1-methyl-1-{2-[3-(methylamino)propyl]phenyl}ethyl)amino]-2-oxopyrazin-1(2H)-yl}benzamide] |
| – | 1.26 nM | CNCCCOc1ccccc1[C@H]1CCCN1c1nccn(-c2cc(C(=O)NC3CC3)ccc2C)c1=O (single isomer, unassigned) [Example 325] |
| 9.5 | – | CCNCCOc1ccccc1C(C)(C)Nc1nccn(-c2cc(C(=O)NC3CC3)ccc2Cl)c1=O [Example 333, 4-Chloro-N-cyclopropyl-3-[3-[(1-{2-[2-(ethylamino)ethoxy]phenyl}-1-methylethyl)amino]-2-oxopyrazin-1(2H)-yl]benzamide] |
| 9.9 | – | Cc1ccc(C(=O)NC2CC2)cc1-n1ccnc(NC2(c3ccccc3OCCNCCO)CC2)c1=O [Example 233, N-Cyclopropyl-3-[3-[[1-[2-[2-[(2-hydroxyethyl)amino]ethoxy]phenyl]cyclopropyl]amino]-2-oxo-1(2H)-pyrazinyl]-4-methyl-benzamide] |
| 6.5 | – | Cc1ccc(C(=O)NC2CC2)cc1-n1ccnc(NC[C@H](O)c2ccccc2)c1=O [Example 55, N-Cyclopropyl-3-[3-[[(2R)-2-hydroxy-2-phenylethyl]amino]-2-oxo-1(2H)-pyrazinyl]-4-methyl-benzamide] |
| 9.9 | – | CNCCOc1ccccc1C(C)(C)Nc1nccn(-c2cc(C(=O)NC3CC3)cc(F)c2C)c1=O [Example 169, N-Cyclopropyl-3-fluoro-4-methyl-5-[3-[[1-methyl-1-[2-[2-(methylamino)ethoxy]phenyl]ethyl]amino]-2-oxo-1(2H)-pyrazinyl]-benzamide] |
| 6.4 | – | Cc1ccc(C(=O)NC2CC2)cc1-n1ccnc(Oc2ccccc2)c1=O [Example 116, N-Cyclopropyl-4-methyl-3-(2-oxo-3-phenoxy-1(2H)-pyrazinyl)-benzamide] |
| 6.3 | – | Cc1ccc(C(=O)NC2CC2)cc1-n1ccnc(NCC(c2ccccc2)N(C)C)c1=O (stereo not drawn) [Example 61, N-Cyclopropyl-3-[3-[[2-(dimethylamino)-2-phenylethyl]amino]-2-oxo-1(2H)-pyrazinyl]-4-methyl-benzamide] |
| 10.1 | – | CCNCCOc1ccc(F)cc1C1(Nc2nccn(-c3cc(C(=O)NC4CC4)ccc3C)c2=O)CC1 [Example 280, N-Cyclopropyl-3-[3-[[1-[2-[2-(ethylamino)ethoxy]-5-fluorophenyl]cyclopropyl]amino]-2-oxo-1(2H)-pyrazinyl]-4-methyl-benzamide] |
| 9.4 | – | Cc1ccc(C(=O)NC2CC2)cc1-n1ccnc(NC(C)(C)c2ccccc2OC2CCNC2)c1=O (stereo not drawn) [Example 216, N-Cyclopropyl-4-methyl-3-[3-[[1-methyl-1-[2-(3-pyrrolidinyloxy)phenyl]ethyl]amino]-2-oxo-1(2H)-pyrazinyl]-benzamide] |
| 10.1 | – | Cc1ccc(C(=O)NC2CC2)cc1-n1ccnc(NC(C)(C)c2ccccc2OC[C@@H](CO)N(C)C)c1=O [Example 306, N-Cyclopropyl-3-[3-{[1-(2-{[(2R)-2-(dimethylamino)-3-hydroxypropyl]oxy}phenyl)-1-methylethyl]amino}-2-oxopyrazin-1(2H)-yl]-4-methylbenzamide] |
| 6.2 | – | Cc1ccc(C(=O)NC2CC2)cc1-n1ccnc(NCc2cnc3ccccc3c2)c1=O [Example 28, N-Cyclopropyl-4-methyl-3-[2-oxo-3-[(3-quinolinylmethyl)amino]-1(2H)-pyrazinyl]-benzamide] |

| Molecule | pIC50 | IC50 |
| --- | --- | --- |
| 4-Methyl-3-[3-[[[4-(4-methyl-1-piperazinyl)phenyl]methyl]amino]-2-oxo-1(2H)-pyrazinyl]-N-(1-methylpropyl)-benzamide [Example 14] | 6 | – |
